# Reference: US11213506B2, “Combination therapy for the treatment or prevention of tumours” (QBIOTICS PTY LTD, priority 2017, dated 2022)
# What was measured:
# MM649 cells [1] = test: ATP release assay; format: cell-based, human; conditions: both concentrations (500 and 300 μM), within 60 minutes
# Description: (§1) A431 (human epidermoid carcinoma), MM649 (human melanoma) and B16-OVA (B16-F10 mouse melanoma cell line stably transfected with chicken ovalbumin) were cultured in RPMI-1640, 10% FCS (complete medium) at 37° C., 5% CO2 in a humidified incubator. BMDCs were cultured in R10 media (RPMI, 10% FCS, 2 mM glutamine, 50 μM beta-mercaptoethanol, Pen/Strep). All cell lines used in this study were confirmed as mycoplasma negative using MycoAlert (Lonza). STR profiling was also performed to confirm the identity of the human cell lines used.
# (§2) Cell lines were plated at a density of 10,000 cells per well into clear 96-well plates (Corning, #3595; 100 μl of complete media) and the resultant plates incubated overnight as previously detailed. The following day, media was aspirated from each well and 50 μl of fresh medium was inserted. Stock solutions of Compounds 1, 2, 3 and 4 were diluted to 2× final assay concentration (1 mM and 600 μM) and 50 μl of these dilutions added to the required wells. Ethanol only control solutions were also compiled and administered. At the indicated timepoints, 80 μl of media was removed, centrifuged at 1,200 rpm for 4 mins to pellet cell debris and 50 μl assayed for ATP using a bioluminescence based ATP assay kit (FLAA, Sigma-Aldrich). Relative luminescence units were recorded for each sample using a Hybrid Synergy H4 plate reader (BioTek).
# A431 cells [2] = test: ATP release assay; format: cell-based, human; conditions: both concentrations (500 and 300 μM), within 60 minutes
# Description: as §1, §2
# [3] = tested on: CD11c+ BMDCs with B16-OVA cells; test: BMDC uptake of epoxytigliane treated B16-OVA cells; format: cell-based, C57Bl/6 mice; conditions: B16-OVA treated at 500 or 300 μM for 30 and 60 mins; 4 h co-culture
# Description: The tibias and […] from four 7-8 week old C57Bl/6 mice were first surgically removed under sterile conditions. The marrow was flushed from the bone cavity with 10 ml of ice cold R10 media (using a 27G needle/syringe into a 50 ml polypropylene tube). Cells were pelleted at 1,500 rpm for 5 mins and washed ×2 with ice cold R10 media. After resuspension of the pellet into 10 ml of ice cold R10 medium, cells were counted using an improved haemocytometer and plated at a density of 2×10^6 cells per plate (petri dish) in 10 ml of R10 supplemented with 20 ng/ml murine GM-CSF. All plates were incubated at 37° C., 5% CO2 and at day 3 an additional 10 ml R10 with 20 ng/ml GM-CSF was added. Cells were again fed at day 6 and used for downstream assays on day 7.
# Prior to co-incubation with BMDCs, B16-OVA cells were trypsinised, centrifuged at 1,200 rpm for 4 mins to pellet cells and washed ×2 with complete medium. Cells were then stained with 2 μM Cell Tracker Green in complete medium for 45 mins, after which they were pelleted and washed ×2 as above. Labelled B16-OVA cells were subsequently treated with Compounds 1, 2, 3 and 4 at two concentrations (500 or 300 μM) in media at a density of 1×10^6 cells/ml for 30 and 60 mins, after which cells were pelleted via centrifugation, supernatant removed via aspiration and the cell pellet washed ×1 with complete media. After the wash, the treated cells were resuspended in R10 media, inserted into the wells of a 6-well plate (Corning, #3471. Ultra low attachment surface) and BMDCs added. Co-cultures were incubated for 4 h after which cell suspensions were transferred to a microfuge tube and centrifuged at 1,500 rpm for 5 mins. Pellets were resuspended in 100 μl FACs buffer containing anti-CD11c-APC and incubated for 10 mins at 4° C. Cells were again pelleted, washed ×1 with FACs buffer and then fixed using PBS, 1% formaldehyde for 10 mins. After centrifugation and removal of the supernatant, cells were resuspended in 500 μl FACs buffer in preparation for flow cytometry.
# Samples were first gated by FSC-H v FSC-A, then SSC-H v SS-A to identify single cells. The proportion of CD11c^+ cells (Ex: 640 nm, Em: 670/14) with CMFDAmid (Ex: 488 nm, Em: 530/30) were then determined for treated and untreated cells as a percentage of all CD11c^+ cells.
# MM649 cells [4] = test: IncuCyte cytotoxicity assay (propidium iodide); format: cell-based, human; conditions: 500 μM; for propidium iodide staining (loss of plasma membrane integrity): after 120 minutes, majority of cells; for cell morphology (cytoplasmic swelling, blistering): differing extents and kinetics of onset
# Description: (§3) A431 (human epidermoid carcinoma), MM649 (human melanoma), B16-OVA (B16-F10 mouse melanoma cell line stably transfected with chicken ovalbumin), MM415 (human melanoma) and FaDu (human hypopharyngeal carcinoma) cells were cultured in RPMI-1640, 10% FCS (complete medium) at 37° C., 5% CO2 in a humidified incubator. All cell lines used in this study were confirmed as mycoplasma negative using MycoAlert (Lonza). STR profiling was also performed to confirm the identity of the human cell lines used.
# (§4) Four cancer cell lines (A431, MM649 (human melanoma), FaDu (HNSCC) and MM415 (human melanoma) were assessed for their response to epoxytigliane treatment. Cells were plated at a density of 10,000 cells per well (100 μl of complete media) into clear bottom black 96-well plates (Corning, #3603). Following 24 h incubation, the media within each well was aspirated and replaced with 50 μl of fresh media containing 1 μg/ml propidium iodide (PI). Stock solutions (20 mg/ml in ethanol) of four epoxytiglianes (Compounds 1, 2, 3 and 4) were diluted to 2× final assay concentration (1 mM) in identical media and inserted into a U-bottom 96 well plate in preparation for transfer. 50 μl of dilution was added to the required wells and the resultant plates inserted into an Essen Biosciences IncuCyte in preparation for imaging. Images were acquired at various time points (30 min, 1 h and at hourly intervals) for a total of 24 h.
# A431 cells [5] = test: IncuCyte cytotoxicity assay (propidium iodide); format: cell-based, human; conditions: 500 μM; for propidium iodide staining (loss of plasma membrane integrity): after 120 minutes, majority of cells; for cell morphology (cytoplasmic swelling, blistering): differing extents and kinetics of onset
# Description: as §3, §4
# FaDu cells = test: IncuCyte cytotoxicity assay (propidium iodide); format: cell-based, human; conditions: 500 μM; for propidium iodide staining (loss of plasma membrane integrity): after 120 minutes, majority of cells; for cell morphology (cytoplasmic swelling, blistering): differing extents and kinetics of onset
# Description: as §3, §4
# MM415 cells = test: IncuCyte cytotoxicity assay (propidium iodide); format: cell-based, human; conditions: 500 μM; for propidium iodide staining (loss of plasma membrane integrity): after 120 minutes, majority of cells; for cell morphology (cytoplasmic swelling, blistering): differing extents and kinetics of onset
# Description: as §3, §4
# B16-OVA cells = test: ATP release assay; format: cell-based, mouse; conditions: both concentrations (500 and 300 μM), within 60 minutes
# Description: as §1, §2
SMILES,ATP release (MM649 cells [1]),ATP release (A431 cells [2]),uptake of dying cancer cell fragments by CD11c+ dendritic cells/macrophages (BMDCs) [3],propidium iodide staining (loss of plasma membrane integrity) (MM649 cells [4]),"cell morphology (cytoplasmic swelling, blistering) (MM649 cells [4])",propidium iodide staining (loss of plasma membrane integrity) (A431 cells [5]),"cell morphology (cytoplasmic swelling, blistering) (A431 cells [5])",propidium iodide staining (loss of plasma membrane integrity) (FaDu cells),"cell morphology (cytoplasmic swelling, blistering) (FaDu cells)",propidium iodide staining (loss of plasma membrane integrity) (MM415 cells),"cell morphology (cytoplasmic swelling, blistering) (MM415 cells)",ATP release (B16-OVA cells)
"CCC(C)C(=O)OC1C(C)C2(O)C(C3OC3(CO)C(O)C3(O)C(=O)C(C)=CC32)C2C(C)(C)C12OC(=O)C(C)CC (stereo not drawn) [Compound 2, 12,13-di-(2-methylbutanoyl)-6,7-epoxy-4,5,9,12,13,20-hexahydroxy-1-tiglien-3-one]",significant release of ATP,significant release of ATP,promotes uptake,strong red staining,significant cytoplasmic swelling and ‘blistering’,strong red staining,significant cytoplasmic swelling and ‘blistering’,strong red staining,significant cytoplasmic swelling and ‘blistering’,strong red staining,significant cytoplasmic swelling and ‘blistering’,significant release of ATP
"CCCCCC(=O)OC1C(C)C2(O)C(C3OC3(CO)C(O)C3(O)C(=O)C(C)=CC32)C2C(C)(C)C12OC(=O)C(C)CC (stereo not drawn) [Compound 3, 12-hexanoyl-13-(2-methylbutanoyl)-6,7-epoxy-4,5,9,12,13,20-hexahydroxy-1-tiglien-3-one]",significant release of ATP,significant release of ATP,promotes uptake,strong red staining,significant cytoplasmic swelling and ‘blistering’,strong red staining,significant cytoplasmic swelling and ‘blistering’,strong red staining,significant cytoplasmic swelling and ‘blistering’,strong red staining,significant cytoplasmic swelling and ‘blistering’,significant release of ATP
"CCCCCC(=O)OC1C(C)C2(O)C(C3OC3(CO)C(O)C3(O)C(=O)C(C)=CC32)C2C(C)(C)C12OC(=O)CCCCC (stereo not drawn) [Compound 4, 12,13-dihexanoyl-6,7-epoxy-4,5,9,12,13,20-hexahydroxy-1-tiglien-3-one]",significant release of ATP,significant release of ATP,promotes uptake,strong red staining,significant cytoplasmic swelling and ‘blistering’,strong red staining,significant cytoplasmic swelling and ‘blistering’,strong red staining,significant cytoplasmic swelling and ‘blistering’,strong red staining,significant cytoplasmic swelling and ‘blistering’,significant release of ATP
